Results as given in US11697648B2, “Fused pyrimidine pyridinone compounds as JAK inhibitors” (THERAVANCE BIOPHARMA R&D IP, LLC, priority 2019, dated 2023).

The compounds below were run against JAK1 (Homo sapiens (Human), UniProt P23458) (assay: Biochemical JAK1 kinase assay (LanthaScreen)). Settings: not given.
Summary of the method: (§1)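 GST-JAK + GFP-STAT1 peptide, HEPES pH 7.5/MgCl2/EGTA/Brij-35 buffer; cpd preincubation 1 h RT; ATP start, 1 h RT; stop with 10 mM EDTA + 2 nM Tb-anti-pSTAT1; TR-FRET 520/495. 4-parameter IC50 → pKi (Cheng-Prusoff).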

Chain of JAK1 (P23458 whole entry): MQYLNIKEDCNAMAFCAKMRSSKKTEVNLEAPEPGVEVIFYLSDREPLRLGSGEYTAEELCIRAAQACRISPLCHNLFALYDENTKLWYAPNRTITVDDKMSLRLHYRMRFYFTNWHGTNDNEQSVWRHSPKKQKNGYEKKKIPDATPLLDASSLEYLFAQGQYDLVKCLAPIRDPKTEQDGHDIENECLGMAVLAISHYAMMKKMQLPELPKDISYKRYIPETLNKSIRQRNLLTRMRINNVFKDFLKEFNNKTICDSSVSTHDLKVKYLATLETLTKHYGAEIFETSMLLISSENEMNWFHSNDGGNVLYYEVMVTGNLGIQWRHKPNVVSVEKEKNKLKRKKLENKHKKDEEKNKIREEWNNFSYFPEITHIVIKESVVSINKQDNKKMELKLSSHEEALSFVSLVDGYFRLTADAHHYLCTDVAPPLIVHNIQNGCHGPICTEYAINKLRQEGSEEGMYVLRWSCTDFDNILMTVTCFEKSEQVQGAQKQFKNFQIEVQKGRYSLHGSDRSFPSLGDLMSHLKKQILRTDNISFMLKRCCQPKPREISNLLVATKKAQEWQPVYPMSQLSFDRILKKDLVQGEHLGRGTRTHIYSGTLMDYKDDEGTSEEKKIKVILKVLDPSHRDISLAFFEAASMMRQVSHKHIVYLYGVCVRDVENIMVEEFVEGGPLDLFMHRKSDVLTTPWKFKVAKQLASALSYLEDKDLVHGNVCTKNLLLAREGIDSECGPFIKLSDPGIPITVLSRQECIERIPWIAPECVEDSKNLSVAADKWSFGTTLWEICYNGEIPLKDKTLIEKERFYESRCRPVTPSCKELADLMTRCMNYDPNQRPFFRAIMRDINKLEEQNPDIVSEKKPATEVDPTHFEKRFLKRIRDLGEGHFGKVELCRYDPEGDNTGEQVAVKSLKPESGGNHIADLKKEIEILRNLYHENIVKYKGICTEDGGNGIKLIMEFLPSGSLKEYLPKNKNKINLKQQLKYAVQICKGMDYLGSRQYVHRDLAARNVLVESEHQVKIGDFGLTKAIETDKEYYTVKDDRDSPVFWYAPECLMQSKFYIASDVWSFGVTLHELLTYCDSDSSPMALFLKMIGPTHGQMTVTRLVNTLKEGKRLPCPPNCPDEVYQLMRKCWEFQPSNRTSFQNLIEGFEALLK

Question: How did the “JAK 1 (pKi)” value turn out when C=CC(=O)N1CCN(CCn2c(=O)ccc3cnc(Nc4cnn(C(C)(C)COC)c4)nc32)[C@@H](C)C1 [Example 233] was run?
Answer: E (E represents a pKi value of 7 or below (Ki of 100 nM or above))

Question: Which “JAK 1 (pKi)” value does the source give for C=CC(=O)N1CC(C(C)Cn2c(=O)ccc3cnc(Nc4ccc(N5CCN(C)CC5)cc4)nc32)C1 (stereo not drawn) [Example 234] here?
Answer: E (E represents a pKi value of 7 or below (Ki of 100 nM or above))

Question: C=CC(=O)N1CCN(CCn2c(=O)ccc3cnc(Nc4cnn(-c5ccccc5)c4)nc32)[C@@H](C)C1 [Example 235] was tested. Which “JAK 1 (pKi)” value did it give?
Answer: E (E represents a pKi value of 7 or below (Ki of 100 nM or above))

Question: How did the “JAK 1 (pKi)” value turn out when C=CC(=O)N1CCN(CCn2c(=O)ccc3cnc(Nc4cnn(CCF)c4)nc32)[C@@H](C)C1 [Example 236] was run?
Answer: E (E represents a pKi value of 7 or below (Ki of 100 nM or above))

Question: Which “JAK 1 (pKi)” value does the source give for C=CC(=O)N1CCN(CCn2c(=O)ccc3cnc(Nc4cnn(Cc5ccccc5)c4)nc32)[C@@H](C)C1 [Example 237] here?
Answer: E (E represents a pKi value of 7 or below (Ki of 100 nM or above))

Question: Which “JAK 1 (pKi)” value does the source give for C=CC(=O)N1CCN(CCn2c(=O)ccc3cnc(Nc4cnn(CCOC(F)F)c4)nc32)[C@@H](C)C1 [Example 238] here?
Answer: E (E represents a pKi value of 7 or below (Ki of 100 nM or above))

Question: For C=CC(=O)N1CC(CCn2c(=O)ccc3cnc(Nc4cnn(Cc5ccccc5)c4)nc32)C1 [Example 239], which “JAK 1 (pKi)” value is on record?
Answer: E (E represents a pKi value of 7 or below (Ki of 100 nM or above))

What follows are compounds tested on IL-2 stimulated STAT5 phosphorylation in Tall-1 human T cell line (JAK3) (assay: Cellular JAK3 potency assay: inhibition of IL-2 stimulated pSTAT5 in Tall-1 T cells). Settings: IL-2 stimulated pSTAT5, Tall-1 T cells.
Type: cell-based
Summary of the method: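 AlphaLISA SureFire Ultra measures STAT5 Tyr694/699 phosphorylation in lysed Tall-1 human T cells. Cells were exposed to compound for 1 h at 37 °C before a 30 min IL-2 challenge (300 ng/ml final). Values are pIC50 means with standard deviation from signal-versus-concentration curves.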

Question: How did the “Tall-1 (pIC50)” value turn out when C=CC(=O)N1CCN(CCn2c(=O)ccc3cnc(Nc4cnn(C(C)(C)COC)c4)nc32)[C@@H](C)C1 [Example 233] was run?
Answer: B (B represents a pC50 value between 6.7 (included) and 7.5 (IC50 between 200 nM and 32 nM))

Question: How did the “Tall-1 (pIC50)” value turn out when C=CC(=O)N1CC(C(C)Cn2c(=O)ccc3cnc(Nc4ccc(N5CCN(C)CC5)cc4)nc32)C1 (stereo not drawn) [Example 234] was run?
Answer: B (B represents a pC50 value between 6.7 (included) and 7.5 (IC50 between 200 nM and 32 nM))

Question: For C=CC(=O)N1CCN(CCn2c(=O)ccc3cnc(Nc4cnn(-c5ccccc5)c4)nc32)[C@@H](C)C1 [Example 235], which “Tall-1 (pIC50)” value is on record?
Answer: B (B represents a pC50 value between 6.7 (included) and 7.5 (IC50 between 200 nM and 32 nM))

Question: For C=CC(=O)N1CCN(CCn2c(=O)ccc3cnc(Nc4cnn(CCF)c4)nc32)[C@@H](C)C1 [Example 236], which “Tall-1 (pIC50)” value is on record?
Answer: B (B represents a pC50 value between 6.7 (included) and 7.5 (IC50 between 200 nM and 32 nM))

Same assay, conditions: IL-2 stimulated pSTAT5 in Tall-1 T cells

Question: With C=CC(=O)N1CCN(CCn2c(=O)ccc3cnc(Nc4cnn(Cc5ccccc5)c4)nc32)[C@@H](C)C1 [Example 237] as the compound, how does the “Tall-1 (pIC50)” value read?
Answer: B (B represents a pC50 value between 6.7 (included) and 7.5 (IC50 between 200 nM and 32 nM))

Question: C=CC(=O)N1CCN(CCn2c(=O)ccc3cnc(Nc4cnn(CCOC(F)F)c4)nc32)[C@@H](C)C1 [Example 238] was tested. Which “Tall-1 (pIC50)” value did it give?
Answer: C (C represents a pIC50 value between 6 and 6.7 (IC50 between 1 μM and 200 nM))

Question: For C=CC(=O)N1CC(CCn2c(=O)ccc3cnc(Nc4cnn(Cc5ccccc5)c4)nc32)C1 [Example 239], which “Tall-1 (pIC50)” value is on record?
Answer: B (B represents a pC50 value between 6.7 (included) and 7.5 (IC50 between 200 nM and 32 nM))

The compounds below were run against Tyk2 (Homo sapiens (Human), UniProt P29597) (assay: Biochemical Tyk2 kinase assay (LanthaScreen)). Settings: not given.
Chain of Tyk2 (P29597 whole entry): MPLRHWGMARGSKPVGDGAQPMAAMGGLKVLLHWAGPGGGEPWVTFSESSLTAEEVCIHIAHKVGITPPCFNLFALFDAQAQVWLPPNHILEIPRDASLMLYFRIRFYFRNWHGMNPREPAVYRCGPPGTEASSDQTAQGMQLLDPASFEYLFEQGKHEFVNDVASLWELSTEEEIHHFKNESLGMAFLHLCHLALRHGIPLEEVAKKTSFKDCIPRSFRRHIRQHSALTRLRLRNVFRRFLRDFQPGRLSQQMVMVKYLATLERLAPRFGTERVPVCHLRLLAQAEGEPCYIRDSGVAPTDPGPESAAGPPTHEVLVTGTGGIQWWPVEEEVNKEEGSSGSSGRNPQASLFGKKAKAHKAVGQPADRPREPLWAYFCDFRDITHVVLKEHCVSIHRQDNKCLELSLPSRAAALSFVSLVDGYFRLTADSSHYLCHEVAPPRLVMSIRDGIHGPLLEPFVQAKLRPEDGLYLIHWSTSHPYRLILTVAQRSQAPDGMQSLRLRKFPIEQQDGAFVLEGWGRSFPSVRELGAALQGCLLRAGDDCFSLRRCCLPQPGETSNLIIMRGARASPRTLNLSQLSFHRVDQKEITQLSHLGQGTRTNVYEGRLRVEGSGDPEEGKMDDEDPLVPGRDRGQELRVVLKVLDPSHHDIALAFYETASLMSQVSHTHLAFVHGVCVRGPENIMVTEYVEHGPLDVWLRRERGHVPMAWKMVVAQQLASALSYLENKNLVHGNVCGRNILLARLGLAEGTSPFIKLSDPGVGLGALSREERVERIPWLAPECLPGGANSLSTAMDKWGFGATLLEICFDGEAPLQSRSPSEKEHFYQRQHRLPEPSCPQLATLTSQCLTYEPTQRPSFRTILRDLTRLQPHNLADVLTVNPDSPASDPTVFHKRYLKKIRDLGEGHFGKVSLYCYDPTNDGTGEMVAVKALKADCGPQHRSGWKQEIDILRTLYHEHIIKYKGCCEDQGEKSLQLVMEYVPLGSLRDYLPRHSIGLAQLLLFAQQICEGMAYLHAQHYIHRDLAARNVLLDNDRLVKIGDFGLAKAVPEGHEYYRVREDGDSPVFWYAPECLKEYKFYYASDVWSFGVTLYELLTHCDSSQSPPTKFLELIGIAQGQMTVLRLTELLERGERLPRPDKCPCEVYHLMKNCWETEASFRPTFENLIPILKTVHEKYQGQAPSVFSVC
Summary of the method: as §1

Question: C=CC(=O)N1CCN(CCn2c(=O)ccc3cnc(Nc4cnn(C(C)(C)COC)c4)nc32)[C@@H](C)C1 [Example 233] was tested. Which “Tyk 2 (pKi)” value did it give?
Answer: E (E represents a pKi value of 7 or below (Ki of 100 nM or above))

Question: C=CC(=O)N1CC(C(C)Cn2c(=O)ccc3cnc(Nc4ccc(N5CCN(C)CC5)cc4)nc32)C1 (stereo not drawn) [Example 234] was tested. Which “Tyk 2 (pKi)” value did it give?
Answer: E (E represents a pKi value of 7 or below (Ki of 100 nM or above))

Question: With C=CC(=O)N1CCN(CCn2c(=O)ccc3cnc(Nc4cnn(-c5ccccc5)c4)nc32)[C@@H](C)C1 [Example 235] as the compound, how does the “Tyk 2 (pKi)” value read?
Answer: E (E represents a pKi value of 7 or below (Ki of 100 nM or above))

Question: Which “Tyk 2 (pKi)” value does the source give for C=CC(=O)N1CCN(CCn2c(=O)ccc3cnc(Nc4cnn(CCF)c4)nc32)[C@@H](C)C1 [Example 236] here?
Answer: E (E represents a pKi value of 7 or below (Ki of 100 nM or above))

Question: Which “Tyk 2 (pKi)” value does the source give for C=CC(=O)N1CCN(CCn2c(=O)ccc3cnc(Nc4cnn(Cc5ccccc5)c4)nc32)[C@@H](C)C1 [Example 237] here?
Answer: E (E represents a pKi value of 7 or below (Ki of 100 nM or above))

Question: Which “Tyk 2 (pKi)” value does the source give for C=CC(=O)N1CCN(CCn2c(=O)ccc3cnc(Nc4cnn(CCOC(F)F)c4)nc32)[C@@H](C)C1 [Example 238] here?
Answer: E (E represents a pKi value of 7 or below (Ki of 100 nM or above))

Question: For C=CC(=O)N1CC(CCn2c(=O)ccc3cnc(Nc4cnn(Cc5ccccc5)c4)nc32)C1 [Example 239], which “Tyk 2 (pKi)” value is on record?
Answer: E (E represents a pKi value of 7 or below (Ki of 100 nM or above))

Each compound was assayed against JAK3 (Homo sapiens (Human), UniProt P52333) (assay: Biochemical JAK3 kinase assay (LanthaScreen)). Settings: not given.
Chain of JAK3 (P52333 whole entry): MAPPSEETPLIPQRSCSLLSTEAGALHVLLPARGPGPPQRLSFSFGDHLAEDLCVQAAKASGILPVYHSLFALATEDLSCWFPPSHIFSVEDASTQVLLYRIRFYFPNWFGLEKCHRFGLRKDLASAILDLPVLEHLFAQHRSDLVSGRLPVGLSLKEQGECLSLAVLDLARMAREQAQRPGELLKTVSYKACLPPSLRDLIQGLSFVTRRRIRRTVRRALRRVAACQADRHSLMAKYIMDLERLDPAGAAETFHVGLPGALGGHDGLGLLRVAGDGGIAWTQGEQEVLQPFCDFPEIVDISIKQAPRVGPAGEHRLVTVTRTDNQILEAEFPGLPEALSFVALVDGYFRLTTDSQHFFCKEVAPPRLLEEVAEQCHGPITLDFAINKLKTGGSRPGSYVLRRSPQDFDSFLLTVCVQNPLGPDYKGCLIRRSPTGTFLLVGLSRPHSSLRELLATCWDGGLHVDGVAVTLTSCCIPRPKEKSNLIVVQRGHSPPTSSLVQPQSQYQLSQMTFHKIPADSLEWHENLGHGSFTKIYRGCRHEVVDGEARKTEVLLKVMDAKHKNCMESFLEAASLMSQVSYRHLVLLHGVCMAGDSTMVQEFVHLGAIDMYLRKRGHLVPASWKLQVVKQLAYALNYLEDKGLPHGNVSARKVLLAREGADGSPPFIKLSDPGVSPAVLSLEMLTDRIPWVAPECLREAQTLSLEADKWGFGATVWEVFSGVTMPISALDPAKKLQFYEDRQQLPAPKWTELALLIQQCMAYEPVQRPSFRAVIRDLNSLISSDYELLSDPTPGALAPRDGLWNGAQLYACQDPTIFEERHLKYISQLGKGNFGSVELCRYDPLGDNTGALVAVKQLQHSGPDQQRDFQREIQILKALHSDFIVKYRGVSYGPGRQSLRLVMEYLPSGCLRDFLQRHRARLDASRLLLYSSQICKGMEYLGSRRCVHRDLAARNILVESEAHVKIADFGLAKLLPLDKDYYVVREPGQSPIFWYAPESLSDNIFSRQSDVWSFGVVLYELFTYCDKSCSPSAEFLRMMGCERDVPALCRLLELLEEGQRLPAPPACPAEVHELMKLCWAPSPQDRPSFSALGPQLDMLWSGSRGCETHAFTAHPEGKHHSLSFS
Summary of the method: as §1

Question: How did the “JAK 3 (pKi)” value turn out when C=CC(=O)N1CCN(CCn2c(=O)ccc3cnc(Nc4cnn(C(C)(C)COC)c4)nc32)[C@@H](C)C1 [Example 233] was run?
Answer: B (B represents pKi value between 9 and 10 (Ki between 1 nM and 0.1 nM))

Question: Which “JAK 3 (pKi)” value does the source give for C=CC(=O)N1CC(C(C)Cn2c(=O)ccc3cnc(Nc4ccc(N5CCN(C)CC5)cc4)nc32)C1 (stereo not drawn) [Example 234] here?
Answer: B (B represents pKi value between 9 and 10 (Ki between 1 nM and 0.1 nM))

Question: For C=CC(=O)N1CCN(CCn2c(=O)ccc3cnc(Nc4cnn(-c5ccccc5)c4)nc32)[C@@H](C)C1 [Example 235], which “JAK 3 (pKi)” value is on record?
Answer: B (B represents pKi value between 9 and 10 (Ki between 1 nM and 0.1 nM))

Question: Which “JAK 3 (pKi)” value does the source give for C=CC(=O)N1CCN(CCn2c(=O)ccc3cnc(Nc4cnn(CCF)c4)nc32)[C@@H](C)C1 [Example 236] here?
Answer: B (B represents pKi value between 9 and 10 (Ki between 1 nM and 0.1 nM))

Question: Which “JAK 3 (pKi)” value does the source give for C=CC(=O)N1CCN(CCn2c(=O)ccc3cnc(Nc4cnn(Cc5ccccc5)c4)nc32)[C@@H](C)C1 [Example 237] here?
Answer: B (B represents pKi value between 9 and 10 (Ki between 1 nM and 0.1 nM))

Question: C=CC(=O)N1CCN(CCn2c(=O)ccc3cnc(Nc4cnn(CCOC(F)F)c4)nc32)[C@@H](C)C1 [Example 238] was tested. Which “JAK 3 (pKi)” value did it give?
Answer: B (B represents pKi value between 9 and 10 (Ki between 1 nM and 0.1 nM))

Question: C=CC(=O)N1CC(CCn2c(=O)ccc3cnc(Nc4cnn(Cc5ccccc5)c4)nc32)C1 [Example 239] was tested. Which “JAK 3 (pKi)” value did it give?
Answer: B (B represents pKi value between 9 and 10 (Ki between 1 nM and 0.1 nM))

Same assay, conditions: selectivity JAK3 over JAK1, difference of pKi

Question: C=CC(=O)N1CCN(CCn2c(=O)ccc3cnc(Nc4cnn(C(C)(C)COC)c4)nc32)[C@@H](C)C1 [Example 233] was tested. Which “JAK3 (pKi)-JAK1 (pKi)” value did it give?
Answer: A (A represents a value of 3 or above)

Question: For C=CC(=O)N1CC(C(C)Cn2c(=O)ccc3cnc(Nc4ccc(N5CCN(C)CC5)cc4)nc32)C1 (stereo not drawn) [Example 234], which “JAK3 (pKi)-JAK1 (pKi)” value is on record?
Answer: A (A represents a value of 3 or above)

Question: Which “JAK3 (pKi)-JAK1 (pKi)” value does the source give for C=CC(=O)N1CCN(CCn2c(=O)ccc3cnc(Nc4cnn(-c5ccccc5)c4)nc32)[C@@H](C)C1 [Example 235] here?
Answer: A (A represents a value of 3 or above)

Question: For C=CC(=O)N1CCN(CCn2c(=O)ccc3cnc(Nc4cnn(CCF)c4)nc32)[C@@H](C)C1 [Example 236], which “JAK3 (pKi)-JAK1 (pKi)” value is on record?
Answer: A (A represents a value of 3 or above)

Same assay, conditions: selectivity, difference of pKi values

Question: How did the “JAK3 (pKi)-JAK1 (pKi)” value turn out when C=CC(=O)N1CCN(CCn2c(=O)ccc3cnc(Nc4cnn(Cc5ccccc5)c4)nc32)[C@@H](C)C1 [Example 237] was run?
Answer: A (A represents a value of 3 or above)

Question: Which “JAK3 (pKi)-JAK1 (pKi)” value does the source give for C=CC(=O)N1CCN(CCn2c(=O)ccc3cnc(Nc4cnn(CCOC(F)F)c4)nc32)[C@@H](C)C1 [Example 238] here?
Answer: A (A represents a value of 3 or above)

Question: C=CC(=O)N1CC(CCn2c(=O)ccc3cnc(Nc4cnn(Cc5ccccc5)c4)nc32)C1 [Example 239] was tested. Which “JAK3 (pKi)-JAK1 (pKi)” value did it give?
Answer: A (A represents a value of 3 or above)

What follows are compounds tested against JAK2 (Homo sapiens (Human), UniProt O60674) (assay: Biochemical JAK2 kinase assay (LanthaScreen)). Settings: not given.
Chain of JAK2 (O60674 whole entry): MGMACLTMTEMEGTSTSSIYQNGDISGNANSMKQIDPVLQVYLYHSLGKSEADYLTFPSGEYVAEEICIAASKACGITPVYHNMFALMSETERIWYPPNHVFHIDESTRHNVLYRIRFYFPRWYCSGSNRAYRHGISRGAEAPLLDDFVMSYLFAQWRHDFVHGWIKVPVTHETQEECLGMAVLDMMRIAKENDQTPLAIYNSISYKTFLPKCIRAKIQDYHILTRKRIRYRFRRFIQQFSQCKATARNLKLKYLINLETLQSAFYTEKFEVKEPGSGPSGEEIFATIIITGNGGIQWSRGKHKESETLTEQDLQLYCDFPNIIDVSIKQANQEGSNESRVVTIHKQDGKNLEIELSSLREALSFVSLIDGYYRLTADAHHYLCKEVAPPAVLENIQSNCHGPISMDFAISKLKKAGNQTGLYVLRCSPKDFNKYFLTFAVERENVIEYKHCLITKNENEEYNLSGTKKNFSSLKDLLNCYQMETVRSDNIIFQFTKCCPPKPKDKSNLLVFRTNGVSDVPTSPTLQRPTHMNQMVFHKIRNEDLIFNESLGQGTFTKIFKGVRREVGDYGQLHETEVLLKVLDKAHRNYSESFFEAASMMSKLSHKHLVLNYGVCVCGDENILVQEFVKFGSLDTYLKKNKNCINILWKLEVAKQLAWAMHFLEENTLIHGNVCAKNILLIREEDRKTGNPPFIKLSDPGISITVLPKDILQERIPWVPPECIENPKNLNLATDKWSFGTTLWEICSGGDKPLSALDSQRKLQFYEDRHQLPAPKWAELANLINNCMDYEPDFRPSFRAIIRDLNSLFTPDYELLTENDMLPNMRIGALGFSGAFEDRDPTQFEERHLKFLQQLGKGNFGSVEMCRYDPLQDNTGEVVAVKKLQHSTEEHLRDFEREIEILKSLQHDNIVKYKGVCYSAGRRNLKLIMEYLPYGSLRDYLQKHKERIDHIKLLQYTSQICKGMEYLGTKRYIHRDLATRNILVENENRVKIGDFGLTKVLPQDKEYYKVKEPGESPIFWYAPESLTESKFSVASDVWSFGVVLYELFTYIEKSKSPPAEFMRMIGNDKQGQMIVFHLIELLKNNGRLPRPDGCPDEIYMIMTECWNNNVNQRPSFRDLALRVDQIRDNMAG
Summary of the method: as §1

Question: How did the “JAK 2 (pKi)” value turn out when C=CC(=O)N1CCN(CCn2c(=O)ccc3cnc(Nc4cnn(C(C)(C)COC)c4)nc32)[C@@H](C)C1 [Example 233] was run?
Answer: E (E represents a pKi value of 7 or below (Ki of 100 nM or above))

Question: C=CC(=O)N1CC(C(C)Cn2c(=O)ccc3cnc(Nc4ccc(N5CCN(C)CC5)cc4)nc32)C1 (stereo not drawn) [Example 234] was tested. Which “JAK 2 (pKi)” value did it give?
Answer: E (E represents a pKi value of 7 or below (Ki of 100 nM or above))

Question: Which “JAK 2 (pKi)” value does the source give for C=CC(=O)N1CCN(CCn2c(=O)ccc3cnc(Nc4cnn(-c5ccccc5)c4)nc32)[C@@H](C)C1 [Example 235] here?
Answer: E (E represents a pKi value of 7 or below (Ki of 100 nM or above))

Question: Which “JAK 2 (pKi)” value does the source give for C=CC(=O)N1CCN(CCn2c(=O)ccc3cnc(Nc4cnn(CCF)c4)nc32)[C@@H](C)C1 [Example 236] here?
Answer: E (E represents a pKi value of 7 or below (Ki of 100 nM or above))

Question: Which “JAK 2 (pKi)” value does the source give for C=CC(=O)N1CCN(CCn2c(=O)ccc3cnc(Nc4cnn(Cc5ccccc5)c4)nc32)[C@@H](C)C1 [Example 237] here?
Answer: E (E represents a pKi value of 7 or below (Ki of 100 nM or above))

Question: Which “JAK 2 (pKi)” value does the source give for C=CC(=O)N1CCN(CCn2c(=O)ccc3cnc(Nc4cnn(CCOC(F)F)c4)nc32)[C@@H](C)C1 [Example 238] here?
Answer: E (E represents a pKi value of 7 or below (Ki of 100 nM or above))

Question: How did the “JAK 2 (pKi)” value turn out when C=CC(=O)N1CC(CCn2c(=O)ccc3cnc(Nc4cnn(Cc5ccccc5)c4)nc32)C1 [Example 239] was run?
Answer: E (E represents a pKi value of 7 or below (Ki of 100 nM or above))
